ChEMBL document CHEMBL5360657, “Discovery of the TLR7/8 Antagonist MHV370 for Treatment of Systemic Autoimmune Diseases” (ACS Med Chem Lett, 2023)

Tests used:
Toll-like receptor 7 [1] = target: T1, Toll-like receptor 7 (Homo sapiens, UniProt Q9NYK1); experiment: Antagonist activity at TLR7 in human PBMC cells assessed as reduction in IFN alpha measured after 20 hrs by AlphaLISA assay; type: cell-based
T1 sequence (Q9NYK1 whole entry): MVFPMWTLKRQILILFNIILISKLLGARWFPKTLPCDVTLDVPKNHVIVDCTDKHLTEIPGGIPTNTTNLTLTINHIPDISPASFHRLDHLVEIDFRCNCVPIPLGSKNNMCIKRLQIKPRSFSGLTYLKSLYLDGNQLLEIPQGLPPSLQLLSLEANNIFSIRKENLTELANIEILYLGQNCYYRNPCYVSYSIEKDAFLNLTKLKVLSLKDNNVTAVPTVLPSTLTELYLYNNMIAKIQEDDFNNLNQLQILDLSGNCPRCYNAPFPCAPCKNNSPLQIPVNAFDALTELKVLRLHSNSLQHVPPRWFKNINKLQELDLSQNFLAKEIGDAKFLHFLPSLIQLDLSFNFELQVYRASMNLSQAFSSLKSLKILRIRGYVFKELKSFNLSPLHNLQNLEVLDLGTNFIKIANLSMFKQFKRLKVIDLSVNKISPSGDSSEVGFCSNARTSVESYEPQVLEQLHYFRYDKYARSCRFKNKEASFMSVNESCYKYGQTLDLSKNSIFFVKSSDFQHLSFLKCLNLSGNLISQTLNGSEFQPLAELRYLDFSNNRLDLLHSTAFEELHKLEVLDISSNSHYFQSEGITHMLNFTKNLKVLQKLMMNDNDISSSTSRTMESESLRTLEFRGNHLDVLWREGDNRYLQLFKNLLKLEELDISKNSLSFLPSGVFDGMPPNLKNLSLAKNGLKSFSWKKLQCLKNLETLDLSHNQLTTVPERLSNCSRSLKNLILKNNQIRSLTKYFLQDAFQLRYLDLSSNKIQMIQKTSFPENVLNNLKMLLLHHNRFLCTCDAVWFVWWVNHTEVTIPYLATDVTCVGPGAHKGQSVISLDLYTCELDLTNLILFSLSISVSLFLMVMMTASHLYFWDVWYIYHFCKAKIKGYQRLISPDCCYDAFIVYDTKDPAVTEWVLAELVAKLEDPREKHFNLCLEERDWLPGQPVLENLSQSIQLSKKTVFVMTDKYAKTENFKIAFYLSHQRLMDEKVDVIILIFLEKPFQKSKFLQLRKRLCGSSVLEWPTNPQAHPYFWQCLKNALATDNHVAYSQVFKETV

Toll-like receptor 7 [2] = target: T2, Toll-like receptor 7 (Mus musculus, UniProt P58681); experiment: Antagonist activity at TLR7 in mouse Splenocyte assessed as reduction in IFN-alpha level measured after 20 hrs by Spectramax M5 method; type: cell-based
T2 sequence (P58681 whole entry): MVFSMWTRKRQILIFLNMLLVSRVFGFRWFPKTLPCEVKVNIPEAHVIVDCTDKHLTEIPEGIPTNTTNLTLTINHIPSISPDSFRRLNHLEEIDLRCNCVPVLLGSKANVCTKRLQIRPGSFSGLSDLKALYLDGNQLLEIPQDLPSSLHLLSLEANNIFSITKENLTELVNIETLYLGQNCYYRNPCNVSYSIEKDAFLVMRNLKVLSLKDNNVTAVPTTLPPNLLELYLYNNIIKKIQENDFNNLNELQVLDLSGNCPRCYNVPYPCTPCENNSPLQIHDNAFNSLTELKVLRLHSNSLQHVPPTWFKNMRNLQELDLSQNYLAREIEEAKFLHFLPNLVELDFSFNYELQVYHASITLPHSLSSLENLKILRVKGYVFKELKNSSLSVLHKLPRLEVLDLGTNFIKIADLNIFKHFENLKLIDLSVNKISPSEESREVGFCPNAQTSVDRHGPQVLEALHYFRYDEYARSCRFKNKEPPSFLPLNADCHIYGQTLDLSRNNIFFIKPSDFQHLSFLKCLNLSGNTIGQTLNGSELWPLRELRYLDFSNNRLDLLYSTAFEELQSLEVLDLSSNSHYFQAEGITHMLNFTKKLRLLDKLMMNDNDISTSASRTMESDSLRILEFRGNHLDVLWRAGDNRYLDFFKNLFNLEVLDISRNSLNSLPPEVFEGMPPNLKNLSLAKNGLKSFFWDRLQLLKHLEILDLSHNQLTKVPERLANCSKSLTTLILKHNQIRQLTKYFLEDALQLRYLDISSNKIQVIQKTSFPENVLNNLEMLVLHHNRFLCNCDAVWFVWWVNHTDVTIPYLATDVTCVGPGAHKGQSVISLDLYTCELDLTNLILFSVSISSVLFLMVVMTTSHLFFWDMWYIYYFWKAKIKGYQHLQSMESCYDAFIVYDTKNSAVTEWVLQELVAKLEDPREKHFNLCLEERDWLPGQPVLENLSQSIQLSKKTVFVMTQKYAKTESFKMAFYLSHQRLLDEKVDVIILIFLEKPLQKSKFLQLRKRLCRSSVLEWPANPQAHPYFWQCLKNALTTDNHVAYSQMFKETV

[3] = Volume of distribution at steady state in mouse at 1 mg/ml, po or iv; type: ADME, organism-based; conditions: in vivo
[4] = AUC in mouse at 1 mg/ml, iv; type: ADME; parameters: dose 1 mg/ml, route iv; conditions: in vivo
[5] = Cmax in mouse at 1 mg/ml, po; type: ADME; parameters: dose 1 mg/ml, route po; conditions: in vivo
[6] = AUC in mouse at 1 mg/ml, po; type: ADME; parameters: dose 1 mg/ml, route po; conditions: in vivo
[7] = Oral bioavailability in mouse at 1 mg/ml; type: ADME, organism-based; conditions: in vivo
[8] = MRT in rat at 1 mg/ml, po or iv; type: ADME, organism-based; conditions: in vivo
[9] = Cmax in rat at 1 mg/ml, po; type: ADME; parameters: dose 1 mg/ml, route po; conditions: in vivo
[10] = AUC in rat at 1 mg/ml, po; type: ADME; parameters: dose 1 mg/ml, route po; conditions: in vivo
[11] = Oral bioavailability in rat at 1 mg/ml; type: ADME, organism-based; conditions: in vivo
[12] = target: Toll-like receptor 7 (Mus musculus) (UniProt P58681); experiment: In vivo antagonist activity against TLR7 in mouse assessed as suppression of IFN alpha level at 30 mg/kg, po measured at 3 hrs by LC-MS/MS analysis

Row | IC50 (Toll-like receptor 7 [1]) [nM] | SMILES | IC50 (Toll-like receptor 7 [2]) [nM] | Vdss [3] [L/kg] | AUC [4] [µM·h] | Cmax [5] [nM] | AUC [6] [µM·h] | bioavailability [7] [%] | MRT [8] [h] | Cmax [9] [nM] | AUC [10] [µM·h] | bioavailability [11] [%] | Activity [12] [ng/mL]
1 | 20 | Cc1cc(N2CCc3c(c(C)nn3CC34CCC(N)(CC3)CC4)C2)c2cnn(C)c2n1 | 74 | – | – | – | – | – | – | – | – | – | –
2 | – | Cc1cc(N2CCc3c(c(C)nn3CC34CCC(NC(=O)[C@@H]5COCCN5)(CC3)CC4)C2)c2cnn(C)c2n1 [MHV-370] | 9 | 0.7 | 5.67 | 1860 | 9.16 | 32 | 1.2 | 282 | 2.82 | 52 | 1347
3 | 17 | CCNCC(=O)NC12CCC(Cn3nc(C)c4c3CCN(c3cc(C)nc5c3cnn5C)C4)(CC1)CC2 | – | 1 | 9.28 | 515 | 4.63 | 10 | 2.8 | 48 | 0.618 | 12 | –
